From US5407911A, “Parathyroid hormone-containing emulsion for nasal administration” (Asahi Kasei Kogyo Kabushiki Kaisha, priority 1991, dated 1995)

Tests used:
Format in all cases: physicochemical
[1] = Stabilities of the emulsions according to the added concentrations of the azacycloalkane derivative (Referential Experiment 2); conditions: for Observation after 3 days standing / Observation after 7 days standing: room temperature
Method: Each 5 ml of a 1% (W/V) solution preliminarily prepared by dissolving dipotassium glycyrrhizate in distilled water was poured in each of eight 10 ml size test tubes, and thereto was added 1-[2-(decylthio)ethyl] azacyclopentane-2-one selected from the azacycloalkane derivatives so as to make a concentration ranging from 0 to 10%. Then the mixture was agitated for 1 minute using Biomixer (NIHON SEIKI SEISAKUSHO) at 15,000 rpm to prepare each emulsion. The state of dispersion just after the preparation, or after 3 days or 7 days standing at room temperature was observed.

[2] = State of dispersion of emulsions of 1-[2-(decylthio)ethyl]azacyclopentan-2-one made with three emulsifying agents (Referential Experiment 1)
Method: Using 1-[2-(decylthio)ethyl]azacyclopentan-2-one selected from the azacycloalkane derivatives, and three emulsifying agents hereinbelow, emulsifiabilities and stabilities of the emulsions were examined.
(§1) […] The mixutre was agitated under 15,000 rpm for 1 minute by Biomixer (NIHON SEIKI SEISAKUSHO) to prepare each emulsion. The state of dispersion just after the preparation and after 3 days standing at room temperature was observed. The turbidity just after the preparation was measured by absorbance at 650 nm, and used as the index of emulsifiability.

[3] = Turbidity just after preparation (absorbance at 650 nm) as index of emulsifiability (Referential Experiment 1); conditions: for Turbidity (650 nm): just after preparation
Method: as §1

[4] = azacycloalkane 10.0 % in 1% dipotassium glycyrrhizate

CCCCCCCCCCSCCN1CCCC1=O [1-[2-(decylthio)ethyl]azacyclopentane-2-one]
Observation just after preparation ([1]; azacycloalkane 0.01 % in 1% dipotassium glycyrrhizate): Colorless clear | Emulsification and emulsion stability ([1]; azacycloalkane 0.01% to 10% at 1% dipotassium glycyrrhizate): good emulsification and gave stable emulsion | Observation after 3 days standing ([1]; azacycloalkane 0.01 %): Colorless clear | Observation after 7 days standing ([1]; azacycloalkane 0.01 %): Colorless clear | Observation just after preparation ([1]; azacycloalkane 0.1 % in 1% dipotassium glycyrrhizate): Colorless clear | Observation after 3 days standing ([1]; azacycloalkane 0.1 %): Colorless clear | Observation after 7 days standing ([1]; azacycloalkane 0.1 %): Colorless clear | Observation just after preparation ([1]; azacycloalkane 0.5 % in 1% dipotassium glycyrrhizate): Colorless clear | Observation after 3 days standing ([1]; azacycloalkane 0.5 %): Colorless clear | Observation after 7 days standing ([1]; azacycloalkane 0.5 %): Colorless clear | Observation just after preparation ([1]; azacycloalkane 1.0 % in 1% dipotassium glycyrrhizate): White clear | Observation after 3 days standing ([1]; azacycloalkane 1.0 %): White clear | Observation after 7 days standing ([1]; azacycloalkane 1.0 %): White clear | Observation just after preparation ([1]; azacycloalkane 2.0 % in 1% dipotassium glycyrrhizate): White clear | Observation after 3 days standing ([1]; azacycloalkane 2.0 %): White clear | Observation after 7 days standing ([1]; azacycloalkane 2.0 %): White clear | Observation just after preparation ([1]; azacycloalkane 5.0 % in 1% dipotassium glycyrrhizate): White emulsified | Observation after 3 days standing ([1]; azacycloalkane 5.0 %): White emulsified | Observation after 7 days standing ([1]; azacycloalkane 5.0 %): White emulsified | Observation just after preparation [1, 4]: White emulsified | Observation after 3 days standing [1, 4]: White emulsified | Observation after 7 days standing [1, 4]: White emulsified

CC1(C)[C@@H](O[C@H]2O[C@H](C(=O)[O-])[C@@H](O)[C@H](O)[C@H]2O[C@@H]2O[C@H](C(=O)[O-])[C@@H](O)[C@H](O)[C@H]2O)CC[C@]2(C)[C@H]3C(=O)C=C4[C@@H]5C[C@@](C)(C(=O)O)CC[C@]5(C)CC[C@@]4(C)[C@]3(C)CC[C@@H]12.[K+].[K+] [dipotassium glycyrrhizate]
Just after preparation (state of dispersion) ([2]; emulsifying agent 0.5 %): White clear | Just after preparation (state of dispersion) ([2]; emulsifying agent 1.0 %): White clear | Just after preparation (state of dispersion) ([2]; emulsifying agent 2.0 %): White clear | Just after preparation (state of dispersion) ([2]; emulsifying agent 3.0 %): White clear | Emulsification ([2]; emulsifying agent at 0.1-5 %): good emulsification | Dissolution ([2]; emulsifying agent at 4-5 %): full dissolution | Turbidity (650 nm) ([3]; emulsifying agent 0.1 %): 1.284 | Turbidity (650 nm) ([3]; emulsifying agent 0.5 %): 0.459 | Turbidity (650 nm) ([3]; emulsifying agent 1.0 %): 0.437 | Turbidity (650 nm) ([3]; emulsifying agent 2.0 %): 0.405 | Turbidity (650 nm) ([3]; emulsifying agent 3.0 %): 0.346 | Turbidity (650 nm) ([3]; emulsifying agent 4.0 %): 0.006 | Turbidity (650 nm) ([3]; emulsifying agent 5.0 %): 0.006 | Turbidity as index of emulsifiability, compared with HCO-60 and polysorbate 80 ([3]; same concentration level): stronger emulsifiability
